How the values were obtained:
h-TGR5 = target: T1, h-TGR5 (Homo sapiens, UniProt Q8TDU6); assay: TGR5 cAMP Assay using Cisbio cAMP Dynamic 2 htrf assay kit; format: cell-based; settings: hTGR5CRE-luc HEK 293 cells
T1 sequence (Q8TDU6 1-330): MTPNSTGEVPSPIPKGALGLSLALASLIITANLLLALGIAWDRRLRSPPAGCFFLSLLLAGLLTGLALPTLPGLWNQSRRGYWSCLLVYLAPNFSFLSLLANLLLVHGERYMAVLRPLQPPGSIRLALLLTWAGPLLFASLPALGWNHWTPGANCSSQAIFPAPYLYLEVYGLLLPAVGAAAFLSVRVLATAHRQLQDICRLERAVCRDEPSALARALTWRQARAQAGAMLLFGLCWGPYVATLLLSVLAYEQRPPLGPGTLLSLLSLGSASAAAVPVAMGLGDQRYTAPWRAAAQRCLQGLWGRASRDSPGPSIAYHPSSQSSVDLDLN
Method: Compounds were diluted in DPBS with 5% DMSO (8-point serial dilution by half logs) in a 96-well plate and 1 μL was transferred to a 384-well assay plate in quadruplicate. The d2-cAMP and anti-cAMP Ab-cryptate stock solution were prepared as per the instructions in the Cisbio™ (Bedford, Mass.) kit. Cells (hTGR5CRE-luc HEK 293 and mTGR5CRE-luc HEK 293) were harvested using cell dissociation buffer and resuspended in DPBS. Cells were adjusted to 0.44×10^6 cells/ml followed by addition of IBMX to a final concentration of 0.5 mM. The cells were then mixed with d2-cAMP solution (7.1 mL cells+100 ul d2-cAMP) and 4000 cells (9 μL) were transferred to each well of the 384-well assay plate. Cells without d2-cAMP were added to eight wells as a negative control. The plate was covered and incubated at room temp for 30 min. Then 10 μL of Ab-cryptate solution was added to each well of the assay plate and incubated for 1 hr. The plate was read on an EnVision™ plate reader (Perkin-Elmer, Waltham, Mass.) and the DeltaF value was calculated as per the instructions in the Cisbio™ kit.
(§1) In the following tables, ECso values determined according to the TGR5 cAMP Assay are noted (cAMP); EC50 values determined according to the TGR5/CRE-Luciferiase Assay are noted (CRE-Luc).

human TGR5 (h-TGR5) = target: T2, human TGR5 (h-TGR5) (Homo sapiens, UniProt Q8TDU6); assay: TGR5/CRE-Luciferase Assay; format: cell-based; settings: HEK 293 hTGR5/CRE-Luc cells, 6 hours incubation, read-out: CRE-Luc Agonist (EC50)
T2 sequence (Q8TDU6 1-330): T1 sequence (Q8TDU6 1-330)
Method: HEK 293 cells stably expressing human TGR5 (h-TGR5) or mouse TGR5 (m-TGR5) were generated from HEK 293 CRE-Luciferase cells. The day before the assay, HEK 293 hTGR5/CRE-Luc cells were plated in DMEM in a 384 well assay plate at a density of 25 k cells/45 μL per well and grown for 18-20 hours. Compounds were serially diluted in DMEM containing 5% DMSO and 5 µL of compound or media alone was transferred to each well and plates were incubated for 6 hours. Following incubation, 30 μL of lysis/luciferase buffer was added to each well. The luciferase activity was then measured on the EnVision™ plate reader and the dose response data was analyzed using ActivityBase.
as §1

| Compound | EC50 (h-TGR5) [nM] | EC50 (human TGR5 (h-TGR5)) [nM] |
| --- | --- | --- |
| CC[N+](C)(C)CCCN(C)S(=O)(=O)c1cc(F)c(CSc2ncc(C(C)(C)c3ccc(Cl)c(OC)c3)n2-c2ccc(F)cc2)c(Cl)c1 [Compound 11m, 3-[{[3-chloro-4-({[5-{1-[4-chloro-3-(methyloxy)phenyl]-1-methylethyl}-1-(4-fluorophenyl)-1H-imidazol-2-yl]thio}methyl)-5-fluorophenyl)sulfonyl}(methyl)amino]-N-ethyl-N,N-dimethylpropan-1-aminium] | < 100 | < 100 |
| COc1cc(C(C)(C)c2cnc(SCc3c(F)cc(S(=O)(=O)N4CC([N+](C)(C)C)C4)cc3Cl)n2-c2ccc(F)cc2)ccc1Cl [Compound 11n, 1-{[3-chloro-4-({[5-{1-[4-chloro-3-(methyloxy)phenyl]-1-methylethyl}-1-(4-fluorophenyl)-1H-imidazol-2-yl]thio}methyl)-5-fluorophenyl]sulfonyl}-N,N,N-trimethylazetidin-3-aminium] | < 100 | < 100 |
| COc1cc(C(C)(C)c2cnc(SCc3c(F)cc(S(=O)(=O)N4CCC([N+](C)(C)C)CC4)cc3Cl)n2-c2ccc(F)cc2)ccc1F [Compound 11o, 1-{[3-chloro-5-fluoro-4-({[5-{1-[4-fluoro-3-(methyloxy)phenyl]-1-methylethyl}-1-(4-fluorophenyl)-1H-imidazol-2-yl]thio}methyl)phenyl]sulfonyl}-N,N,N-trimethylpiperidin-4-aminium] | < 100 | < 100 |
| COc1cc(C(C)(C)c2cnc(SCc3c(F)cc(S(=O)(=O)N4CCC[C@@H]([N+](C)(C)C)C4)cc3Cl)n2-c2ccc(F)cc2)ccc1F [Compound 11p, (3R)-1-{[3-chloro-5-fluoro-4-({[5-{1-[4-fluoro-3-(methyloxy)phenyl]-1-methylethyl}-1-(4-fluorophenyl)-1H-imidazol-2-yl]thio}methyl)phenyl]sulfonyl}-N,N,N-trimethylpiperidin-3-aminium] | < 100 | < 100 |
| CC[N+](C)(C)C1CCN(S(=O)(=O)c2cc(F)c(CSc3ncc(C(C)(C)c4ccc(F)c(OC)c4)n3-c3ccc(F)cc3)c(Cl)c2)CC1 [Compound 11q, 1-{[3-chloro-5-fluoro-4-({[5-{1-[4-fluoro-3-(methyloxy)phenyl]-1-methylethyl}-1-(4-fluorophenyl)-1H-imidazol-2-yl]thio}methyl)phenyl]sulfonyl}-N-ethyl-N,N-dimethylpiperidin-4-aminium] | < 100 | < 100 |
| COc1cc(C(C)(C)c2cnc(SCc3c(F)cc(S(=O)(=O)N4CC(C[N+](C)(C)C)C4)cc3Cl)n2-c2ccc(F)cc2)ccc1Cl [Compound 11r, (1-{[3-chloro-4-({[5-{1-[4-chloro-3-(methyloxy)phenyl]-1-methylethyl}-1-(4-fluorophenyl)-1H-imidazol-2-yl]thio}methyl)-5-fluorophenyl]sulfonyl}azetidin-3-yl)-N,N,N-trimethylmethanaminium] | < 100 | < 100 |
| COc1cc(C(C)(C)c2cnc(SCc3c(F)cc(S(=O)(=O)NCC4CC[N+](C)(C)CC4)cc3Cl)n2-c2ccc(F)cc2)ccc1F [Compound 11s, 4-[({[3-chloro-5-fluoro-4-({[5-{1-[4-fluoro-3-(methyloxy)phenyl]-1-methylethyl}-1-(4-fluorophenyl)-1H-imidazol-2-yl]thio}methyl)phenyl]sulfonyl}amino)methyl]-1,1-dimethylpiperidinium] | < 100 | < 100 |
| COc1cc(C(C)(C)c2cnc(SCc3c(F)cc(S(=O)(=O)Nc4cccc[n+]4C)cc3Cl)n2-c2ccc(F)cc2)ccc1F [Compound 11t, 2-({[3-chloro-5-fluoro-4-({[5-{1-[4-fluoro-3-(methyloxy)phenyl]-1-methylethyl}-1-(4-fluorophenyl)-1H-imidazol-2-yl]thio}methyl)phenyl]sulfonyl}amino)-1-methylpyridinium] | < 100 | < 100 |
| COc1cc(C(C)(C)c2cnc(SCc3c(F)cc(S(=O)(=O)N4CCC[C@@H](C[N+](C)(C)C)C4)cc3Cl)n2-c2ccc(F)cc2)ccc1F [Compound 11u, [(3S)-1-{[3-chloro-5-fluoro-4-({[5-{1-[4-fluoro-3-(methyloxy)phenyl]-1-methylethyl}-1-(4-fluorophenyl)-1H-imidazol-2-yl]thio}methyl)phenyl]sulfonyl}piperidin-3-yl]-N,N,N-trimethylmethanaminium] | < 100 | < 100 |
| COc1cc(C(C)(C)c2cnc(SCc3c(F)cc(S(=O)(=O)N4CC[C@@H](C[N+](C)(C)C)C4)cc3Cl)n2-c2ccc(F)cc2)ccc1F [Compound 11v, [(3S)-1-{[3-chloro-5-fluoro-4-({[5-(1-[4-fluoro-3-(methyloxy)phenyl]-1-methylethyl}-1-(4-fluorophenyl)-1H-imidazol-2-yl]thio}methyl)phenyl]sulfonyl}pyrrolidin-3-yl]-N,N,N-trimethylmethanaminium] | < 100 | < 100 |
| COc1cc(C(C)(C)c2cnc(SCc3c(F)cc(S(=O)(=O)N4CCC[C@H](C[N+](C)(C)C)C4)cc3Cl)n2-c2ccc(F)cc2)ccc1F [Compound 11w, [(3R)-1-{[3-chloro-5-fluoro-4-({[5-{1-[4-fluoro-3-(methyloxy)phenyl]-1-methylethyl}-1-(4-fluorophenyl)-1H-imidazol-2-yl]thio}methyl)phenyl]sulfonyl}piperidin-3-yl]-N,N,N-trimethylmethanaminium] | < 100 | < 100 |
| COc1cc(C(C)(C)c2cnc(SCc3c(F)cc(S(=O)(=O)N4CCC(C[N+](C)(C)C)(C(=O)O)CC4)cc3F)n2-c2ccc(F)cc2)ccc1Cl [Compound 11x, (4-carboxy-1-{[4-({[5-{1-[4-chloro-3-(methyloxy)phenyl]-1-methylethyl}-1-(4-fluorophenyl)-1H-imidazol-2-yl]thio}methyl)-3,5-difluorophenyl]sulfonyl}piperidin-4-yl)-N,N,N-trimethylmethanaminium] | < 100 | < 100 |
| COc1cc(C(C)(C)c2cnc(SCc3c(F)cc(S(=O)(=O)N(C)CCC[N+](C)(C)C)cc3F)n2-c2ccc(F)cc2)ccc1Cl [Compound 12a, 3-(4-((5-(2-(4-chloro-3-methoxyphenyl)propan-2-yl)-1-(4-fluorophenyl)-1H-imidazol-2-ylthio)methyl)-3,5-difluoro-N-methylphenylsulfonamido)-N,N,N-trimethylpropan-1-aminium 2,2,2-trifluoroacetate] | < 100 | < 100 |
| COc1cc(C(C)(C)c2cnc(SCc3c(F)cc(S(=O)(=O)N(C)CCC[N+](C)(C)C)cc3Cl)n2-c2ccc(F)cc2)ccc1Cl [Compound 12c, 3-(3-chloro-4-((5-(2-(4-chloro-3-methoxyphenyl)propan-2-yl)-1-(4-fluorophenyl)-1H-imidazol-2-ylthio)methyl)-5-fluoro-N-methylphenylsulfonamido)-N,N,N-trimethylpropan-1-aminium 2,2,2-trifluoroacetate] | < 100 | < 100 |
| COc1cc(C(C)(C)c2cnc(SCc3c(F)cc(S(=O)(=O)N(C)CCC[N+](C)(C)C)cc3Cl)n2-c2ccc(F)cc2)ccc1F [Compound 12d, 3-(3-chloro-5-fluoro-4-((5-(2-(4-fluoro-3-methoxyphenyl)propan-2-yl)-1-(4-fluorophenyl)-1H-imidazol-2-ylthio)methyl)-N-methylphenylsulfonamido)-N,N,N-trimethylpropan-1-aminium 2,2,2-trifluoroacetate] | < 100 | < 100 |
| COc1cc(C(C)(C)c2cnc(COc3c(F)cc(S(=O)(=O)N(C)CCC[N+](C)(C)C)cc3Cl)n2-c2ccc(F)cc2)ccc1Cl [Compound 12e, 3-(3-Chloro-4-((5-(2-(4-chloro-3-methoxyphenyl)propan-2-yl)-1-(4-fluorophenyl)-1H-imidazol-2-yl)methoxy)-5-fluoro-N-methylphenylsulfonamido)-N,N,N-trimethylpropan-1-aminium 2,2,2-trifluoroacetate] | < 100 | < 100 |

Source: patent US8846739B2, “TGR5 agonists” (Exelixis Patent Company LLC, priority 2009, dated 2014)
